# Data: PMC4666646, “The Structure of the RNA-Dependent RNA Polymerase of a Permutotetravirus Suggests a Link between Primer-Dependent and Primer-Independent Polymerases” (PLoS Pathogens, 2015)
# What was measured:
# TaVpol (TaV RdRP domain) [1] = molecular target: T1, TaVpol (TaV RdRP domain) (Thosea asigna virus, UniProt Q6A562); conditions: MnCl2, ssRNA template 5'-[…]; active site of molecule B, base stacked on Y611 and F613 of loop λ6
# TaVpol (TaV RdRP domain) [2] = molecular target: T1, TaVpol (TaV RdRP domain); assay: X-ray crystal structure, […] Å; assay type: binding; design: RdRP domain, first 674 residues of replicase ORF1 (1257 residues), 75 kDa fragment released by proteolysis in Hi5 insect cells; N-terminal 6xHis tag and TEV site, tag cut for biochemical assays; dimer; conditions: MgCl2; triphosphate in rNTP tunnel (nucleoside disordered); second site in thumb subdomain (M556, T560, D563, E601)
# TaVpol (TaV RdRP domain) [3] = molecular target: T1, TaVpol (TaV RdRP domain); assay: X-ray crystal structure, […] Å; assay type: binding; design: RdRP domain, first 674 residues of replicase ORF1 (1257 residues), 75 kDa fragment released by proteolysis in Hi5 insect cells; N-terminal 6xHis tag and TEV site, tag cut for biochemical assays; dimer; conditions: MgCl2; triphosphate in rNTP tunnel (nucleoside disordered); second site in thumb subdomain (M556, T560, D563, E601); remark: listed apart in the source
# [4] = molecular target: TaVpol (RdRP domain of Thosea asigna virus ORF1, first 674 residues) (Thosea asigna virus); assay: SEC; analytic chromatography on a calibrated Superdex 200 5/150 column of purified proteins; for TaVpol also the final purification step on Superdex 200 HR 10/300 (50 mM MES pH 6.0, 500 mM NaCl, 10% glycerol, 5 mM DTT)
# [5] = molecular target: T2, TaVpol (RdRP-containing N-terminal fragment of ORF1) (Thosea asigna virus, UniProt Q6A562 1-674); assay: X-ray crystallography; ATP, CTP, 5 mM MnCl2; 3.5 A; RNA density weak, only phosphate peaks in template channel, RNA not built; Complex formation: 1 mg/ml TaVpol, 1:1.5 protein:RNA, 50 mM MES pH 6.0, 200 mM NaCl, 10% glycerol, 5 mM DTT, 30 C 30 min; crystals at 20 C in 12% PEG 8K, 750 mM Li2SO4; conditions: protein: recombinant; tags: N-terminal 6xHis with TEV site (tag not removed for RNA complexes as far as stated); chain copies: 2; single strand
# [6] = molecular target: T2, TaVpol (RdRP-containing N-terminal …); assay: X-ray crystallography; Complex formation: 1 mg/ml TaVpol, 1:1.5 protein:RNA, 50 mM MES pH 6.0, 200 mM NaCl, 10% glycerol, 5 mM DTT, 30 C 30 min; crystals at 20 C in 12% PEG 8K, 750 mM Li2SO4; conditions: protein: recombinant; tags: N-terminal 6xHis with TEV site (tag not removed for RNA complexes as far as stated); chain copies: 2; single strand
molecule,measurement,setting,value
Nc1ncnc2c1ncn2[C@@H]1O[C@H](COP(=O)(O)OP(=O)(O)OP(=O)(O)O)[C@@H](O)[C@H]1O [ATP],"X-ray crystal structure, 3.5 Å",TaVpol (TaV RdRP domain) [1],"This density, was interpreted as the presence of a bound ATP molecule"
Nc1ccn([C@@H]2O[C@H](COP(=O)(O)OP(=O)(O)OP(=O)(O)O)[C@@H](O)[C@H]2O)c(=O)n1 [CTP],"X-ray crystal structure, 2.25 Å",TaVpol (TaV RdRP domain) [2],TaVpol-GTP and TaVpol-CTP co-crystals were also obtained in presence of MgCl2
Nc1nc2c(ncn2[C@@H]2O[C@H](COP(=O)(O)OP(=O)(O)OP(=O)(O)O)[C@@H](O)[C@H]2O)c(=O)[nH]1 [GTP],"X-ray crystal structure, 2.3 Å",TaVpol (TaV RdRP domain) [3],TaVpol-GTP and TaVpol-CTP co-crystals were also obtained in presence of MgCl2
"TaVpol (RdRP domain of Thosea asigna virus ORF1, first 674 residues) (domain or fragment)",stoichiometry N,[4],2
CCCAUUCGACUCCUG (ssRNA) [15-nt ssRNA template],binding result,[5],binds
GUAUACUACACCCAUUCGACUCCUG (ssRNA) [25-nt ssRNA template],binding result,[6],binds
